Patent US20240209028A1, “CNP COMPOUNDS” (priority 2022, published 2024)
Starred links: 1 amine or outer side, 2 acyl side, 3 side chain; linkers in the order of their positions; H or OH if unused. Positions of bridges follow the written chain, without caps; N, C: chain ends. Residues, ends and D or L forms follow the SMILES beside them. *: point of attachment. C18 diacid = O=C(O)CCCCCCCCCCCCCCCCC(=O)*; γGlu = O=C(O)[C@H](CCC(=O)[*:2])N[*:1]; AEEA = NCCOCCOCC(=O)O

molecular target: T1, human natriuretic peptide receptor 2 (hNPR2) (Homo sapiens, UniProt P20594); experiment: In vitro hNPR2 activity assay (cGMP GloSensor reporter, HEK293); format: cell-based; conditions: 0% HSA; HEK293-hNPR2/GloSensor cells
T1 construct: expressed in transfected cells; host or cells: HEK293 (ATCC CRL-1573), clone 35, co-transfected with pGloSensor-42F
T1 sequence (P20594 23-1047): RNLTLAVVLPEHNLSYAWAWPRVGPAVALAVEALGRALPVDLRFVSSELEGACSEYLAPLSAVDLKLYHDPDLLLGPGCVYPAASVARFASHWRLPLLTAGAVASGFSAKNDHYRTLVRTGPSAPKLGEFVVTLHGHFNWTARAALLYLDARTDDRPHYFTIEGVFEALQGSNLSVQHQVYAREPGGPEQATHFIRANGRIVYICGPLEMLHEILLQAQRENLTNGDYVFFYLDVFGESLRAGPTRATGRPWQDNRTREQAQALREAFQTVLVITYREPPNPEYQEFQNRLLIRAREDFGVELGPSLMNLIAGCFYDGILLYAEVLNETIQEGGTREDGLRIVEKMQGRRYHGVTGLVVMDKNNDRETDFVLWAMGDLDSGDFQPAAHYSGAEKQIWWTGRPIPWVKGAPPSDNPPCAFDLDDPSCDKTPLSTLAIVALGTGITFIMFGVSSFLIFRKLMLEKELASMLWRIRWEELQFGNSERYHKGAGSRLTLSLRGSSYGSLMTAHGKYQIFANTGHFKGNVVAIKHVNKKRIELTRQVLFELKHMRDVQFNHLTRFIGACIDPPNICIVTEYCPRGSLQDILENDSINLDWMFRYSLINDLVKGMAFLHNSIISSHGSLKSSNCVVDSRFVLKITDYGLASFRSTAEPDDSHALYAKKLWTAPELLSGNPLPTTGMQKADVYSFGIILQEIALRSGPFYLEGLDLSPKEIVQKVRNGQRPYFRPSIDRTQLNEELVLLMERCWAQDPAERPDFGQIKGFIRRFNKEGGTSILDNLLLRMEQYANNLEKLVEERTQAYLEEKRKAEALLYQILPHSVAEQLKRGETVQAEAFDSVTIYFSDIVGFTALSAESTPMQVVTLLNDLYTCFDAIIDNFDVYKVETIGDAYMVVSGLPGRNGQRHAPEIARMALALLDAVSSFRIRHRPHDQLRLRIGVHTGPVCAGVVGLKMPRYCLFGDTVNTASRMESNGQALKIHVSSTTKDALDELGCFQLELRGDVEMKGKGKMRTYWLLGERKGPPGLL
In short: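 Potency is the EC50 from a four-parameter logistic fit, also expressed relative to the in-plate CNP22 control (×100), with at least two replicates. Compounds (ten concentrations, […], HSA-free diluent with 1% OVA, 0.01% Tween20) were incubated 30 min at 37 °C on HEK293 cells co-expressing hNPR2 and a GloSensor cGMP luciferase. Luminescence detected with Bright-Glo.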

EC50	Compound
2.53 nM	CC[C@H](C)[C@@H]1NC(=O)[C@H](CCCNC(=N)N)NC(=O)[C@H](CC(=O)O)NC(=O)[C@H](CC(C)C)NC(=O)[C@H](CCCCN)NC(=O)[C@H](CC(C)C)NC(=O)CNC(=O)[C@H](Cc2ccccc2)NC(=O)[C@@H](NC(=O)CNC(=O)[C@H](CCCCN)NC(=O)[C@H](CO)NC(=O)[C@H](CC(C)C)NC(=O)CNC(=O)[C@H](CCCCN)NC(=O)[C@H](CCCCN)NC(=O)[C@H](CCC(N)=O)NC(=O)[C@H](C)NC(=O)CNC(=O)[C@H](Cc2c[nH]cn2)NC(=O)[C@H](CCC(=O)O)NC(=O)COCCOCCNC(=O)COCCOCCNC(=O)COCCOCCNC(=O)CC[C@H](NC(=O)CC[C@H](NC(=O)CCCCCCCCCCCCCCCCC(=O)O)C(=O)O)C(=O)O)CSSC[C@@H](C(=O)O)NC(=O)CNC(=O)[C@H](CC(C)C)NC(=O)CNC(=O)[C@H](CO)NC(=O)[C@H](CC(C)C)NC(=O)[C@H](CO)NC(=O)CNC1=O [compound 1357]

same assay, conditions: potency relative to CNP22 (0065)

Compound	hNPR2 0% HSA. [EC50% rel CNP]
CC[C@H](C)[C@@H]1NC(=O)[C@H](CCCNC(=N)N)NC(=O)[C@H](CC(=O)O)NC(=O)[C@H](CC(C)C)NC(=O)[C@@H]2CCCN2C(=O)[C@H](CC(C)C)NC(=O)CNC(=O)[C@H](Cc2ccccc2)NC(=O)[C@@H](NC(=O)CNC(=O)[C@H](CO)NC(=O)[C@H](CO)NC(=O)[C@H](CC(C)C)NC(=O)CNC(=O)[C@@H](NC(=O)[C@H](Cc2c[nH]cn2)NC(=O)[C@H](CCC(N)=O)NC(=O)[C@H](C)NC(=O)CNC(=O)[C@H](Cc2c[nH]cn2)NC(=O)[C@H](Cc2ccc(O)cc2)NC(=O)[C@H](CCCCN)NC(=O)[C@H](CCCNC(=N)N)NC(=O)[C@H](C)NC(=O)COCCOCCNC(=O)COCCOCCNC(=O)CC[C@H](NC(=O)CCCCCCCCCCCCCCCCC(=O)O)C(=O)O)[C@@H](C)O)CSSC[C@@H](C(=O)O)NC(=O)CNC(=O)[C@H](CC(C)C)NC(=O)CNC(=O)[C@H](CO)NC(=O)[C@H](CC(C)C)NC(=O)[C@H](CO)NC(=O)CNC1=O [compound 1350] ({C18 diacid-γGlu-AEEA-AEEA}-ARKYHGAQHTGLSSGCFGLPLDRIGSLSGLGC-OH; disulfide 16-32)	41.0%
CC[C@H](C)[C@@H]1NC(=O)[C@H](CCCNC(=N)N)NC(=O)[C@H](CC(=O)O)NC(=O)[C@H](CC(C)C)NC(=O)[C@@H]2CCCN2C(=O)[C@H](CC(C)C)NC(=O)CNC(=O)[C@H](Cc2ccccc2)NC(=O)[C@@H](NC(=O)CNC(=O)[C@H](CCCCN)NC(=O)[C@H](CO)NC(=O)[C@H](CC(C)C)NC(=O)CNC(=O)[C@H](CCCCN)NC(=O)[C@H](CCCCN)NC(=O)[C@H](CCC(N)=O)NC(=O)[C@H](C)NC(=O)CNC(=O)[C@H](Cc2c[nH]cn2)NC(=O)[C@H](CCC(=O)O)NC(=O)COCCOCCNC(=O)COCCOCCNC(=O)COCCOCCNC(=O)CC[C@H](NC(=O)CCCCCCCCCCCCCCCCC(=O)O)C(=O)O)CSSC[C@@H](C(=O)O)NC(=O)CNC(=O)[C@H](CC(C)C)NC(=O)CNC(=O)[C@H](CO)NC(=O)[C@H](CC(C)C)NC(=O)[C@H](CO)NC(=O)CNC1=O [compound 1353] ({C18 diacid-γGlu-AEEA-AEEA-AEEA}-EHGAQKKGLSKGCFGLPLDRIGSLSGLGC-OH; disulfide 13-29; C-terminus assumed)	9.0%
CC[C@H](C)[C@@H]1NC(=O)[C@H](CCCNC(=N)N)NC(=O)[C@H](CC(=O)O)NC(=O)[C@H](CC(C)C)NC(=O)[C@@H]2CCCN2C(=O)[C@H](CC(C)C)NC(=O)CNC(=O)[C@H](Cc2ccccc2)NC(=O)[C@@H](NC(=O)CNC(=O)[C@H](CO)NC(=O)[C@H](CO)NC(=O)[C@H](CC(C)C)NC(=O)CNC(=O)[C@H](CCCCN)NC(=O)[C@H](CCCCN)NC(=O)[C@H](CCC(N)=O)NC(=O)[C@H](C)NC(=O)CNC(=O)[C@H](CCCCN)NC(=O)[C@H](Cc2ccc(O)cc2)NC(=O)COCCOCCNC(=O)COCCOCCNC(=O)COCCOCCNC(=O)CC[C@H](NC(=O)CCCCCCCCCCCCCCCCC(=O)O)C(=O)O)CSSC[C@@H](C(=O)O)NC(=O)CNC(=O)[C@H](CC(C)C)NC(=O)CNC(=O)[C@H](CO)NC(=O)[C@H](CC(C)C)NC(=O)[C@H](CO)NC(=O)CNC1=O [compound 1355] ({C18 diacid-γGlu-AEEA-AEEA-AEEA}-YKGAQKKGLSSGCFGLPLDRIGSLSGLGC-OH; disulfide 13-29)	28.2%
CC[C@H](C)[C@@H]1NC(=O)[C@H](CCCNC(=N)N)NC(=O)[C@H](CC(=O)O)NC(=O)[C@H](CC(C)C)NC(=O)[C@H](CCCCN)NC(=O)[C@H](CC(C)C)NC(=O)CNC(=O)[C@H](Cc2ccccc2)NC(=O)[C@@H](NC(=O)CNC(=O)[C@H](CCCCN)NC(=O)[C@H](CO)NC(=O)[C@H](CC(C)C)NC(=O)CNC(=O)[C@H](CCCCN)NC(=O)[C@H](CCCCN)NC(=O)[C@H](CCC(N)=O)NC(=O)[C@H](C)NC(=O)CNC(=O)[C@H](Cc2c[nH]cn2)NC(=O)[C@H](CCC(=O)O)NC(=O)COCCOCCNC(=O)COCCOCCNC(=O)COCCOCCNC(=O)CC[C@H](NC(=O)CC[C@H](NC(=O)CCCCCCCCCCCCCCCCC(=O)O)C(=O)O)C(=O)O)CSSC[C@@H](C(=O)O)NC(=O)CNC(=O)[C@H](CC(C)C)NC(=O)CNC(=O)[C@H](CO)NC(=O)[C@H](CC(C)C)NC(=O)[C@H](CO)NC(=O)CNC1=O [compound 1357]	4.3%
CC[C@H](C)[C@@H]1NC(=O)[C@H](CCCNC(=N)N)NC(=O)[C@H](CC(=O)O)NC(=O)[C@H](CC(C)C)NC(=O)[C@@H]2CCCN2C(=O)[C@H](CC(C)C)NC(=O)CNC(=O)[C@H](Cc2ccccc2)NC(=O)[C@@H](NC(=O)CNC(=O)[C@H](CO)NC(=O)[C@H](CO)NC(=O)[C@@H](NC(=O)CNC(=O)[C@@H](NC(=O)[C@H](CCCCN)NC(=O)[C@H](CCC(N)=O)NC(=O)[C@H](C)NC(=O)CNC(=O)[C@H](Cc2c[nH]cn2)NC(=O)[C@H](CCC(=O)O)NC(=O)[C@H](CCCCN)NC(=O)[C@H](CCCNC(=N)N)NC(=O)[C@H](C)NC(=O)COCCOCCNC(=O)COCCOCCNC(=O)CC[C@H](NC(=O)CCCCCCCCCCCCCCCCC(=O)O)C(=O)O)[C@@H](C)O)C(C)C)CSSC[C@@H](C(=O)O)NC(=O)CNC(=O)[C@H](CC(C)C)NC(=O)CNC(=O)[C@H](CO)NC(=O)[C@H](CC(C)C)NC(=O)[C@H](CO)NC(=O)CNC1=O [compound 1359] ({C18 diacid-γGlu-AEEA-AEEA}-ARKEHGAQKTGVSSGCFGLPLDRIGSLSGLGC-OH; disulfide 16-32; C-terminus assumed)	28.2%
CC[C@H](C)[C@@H]1NC(=O)[C@H](CCCNC(=N)N)NC(=O)[C@H](CC(=O)O)NC(=O)[C@H](CC(C)C)NC(=O)[C@@H]2CCCN2C(=O)[C@H](CC(C)C)NC(=O)CNC(=O)[C@H](Cc2ccccc2)NC(=O)[C@@H](NC(=O)CNC(=O)[C@H](CO)NC(=O)[C@H](CO)NC(=O)[C@@H](NC(=O)CNC(=O)[C@@H](NC(=O)[C@H](Cc2c[nH]cn2)NC(=O)[C@H](CCC(N)=O)NC(=O)[C@H](C)NC(=O)CNC(=O)[C@H](Cc2c[nH]cn2)NC(=O)[C@H](CCC(=O)O)NC(=O)[C@H](CCCCN)NC(=O)[C@H](CCCNC(=N)N)NC(=O)[C@H](C)NC(=O)COCCOCCNC(=O)COCCOCCNC(=O)CC[C@H](NC(=O)CCCCCCCCCCCCCCCCC(=O)O)C(=O)O)[C@@H](C)O)C(C)C)CSSC[C@@H](C(=O)O)NC(=O)CNC(=O)[C@H](CC(C)C)NC(=O)CNC(=O)[C@H](CO)NC(=O)[C@H](CC(C)C)NC(=O)[C@H](CO)NC(=O)CNC1=O [compound 1360] ({C18 diacid-γGlu-AEEA-AEEA}-ARKEHGAQHTGVSSGCFGLPLDRIGSLSGLGC-OH; disulfide 16-32)	15.1%
CC[C@H](C)[C@@H]1NC(=O)[C@H](CCCNC(=N)N)NC(=O)[C@H](CC(=O)O)NC(=O)[C@H](CC(C)C)NC(=O)[C@@H]2CCCN2C(=O)[C@H](CC(C)C)NC(=O)CNC(=O)[C@H](Cc2ccccc2)NC(=O)[C@@H](NC(=O)CNC(=O)[C@H](CO)NC(=O)[C@H](CO)NC(=O)[C@H](CC(C)C)NC(=O)CNC(=O)[C@H](CCCCN)NC(=O)[C@H](CCCCN)NC(=O)[C@H](CCC(N)=O)NC(=O)[C@H](C)NC(=O)CNC(=O)[C@H](CCC(=O)O)NC(=O)[C@H](Cc2ccc(O)cc2)NC(=O)[C@H](CO)NC(=O)[C@H](CCCNC(=N)N)NC(=O)[C@H](C)NC(=O)[C@H](CCC(=O)O)NC(=O)[C@@H]2CCCN2C(=O)[C@H](Cc2c[nH]cn2)NC(=O)[C@H](CCC(=O)O)NC(=O)[C@H](CCC(N)=O)NC(=O)COCCOCCNC(=O)COCCOCCNC(=O)CC[C@H](NC(=O)CCCCCCCCCCCCCCCCC(=O)O)C(=O)O)CSSC[C@@H](C(=O)O)NC(=O)CNC(=O)[C@H](CC(C)C)NC(=O)CNC(=O)[C@H](CO)NC(=O)[C@H](CC(C)C)NC(=O)[C@H](CO)NC(=O)CNC1=O [compound 1380] ({C18 diacid-γGlu-AEEA-AEEA}-QEHPEARSYEGAQKKGLSSGCFGLPLDRIGSLSGLGC-OH; disulfide 21-37; C-terminus assumed)	15.7%
